Measured values from US20250154144A1 (CHILDREN'S HOSPITAL MEDICAL CENTER, priority 2021, published 2025).
Substitutions are numbered along the chain they refer to.

How the values were obtained:
IRAK4 [1] = biological target: T1, IRAK4 (Homo sapiens, UniProt Q9NWZ3); assay: RBC HotSpot Kinase Assay, IRAK4; conditions: IRAK4 IC50
T1 sequence (Q9NWZ3 1-460): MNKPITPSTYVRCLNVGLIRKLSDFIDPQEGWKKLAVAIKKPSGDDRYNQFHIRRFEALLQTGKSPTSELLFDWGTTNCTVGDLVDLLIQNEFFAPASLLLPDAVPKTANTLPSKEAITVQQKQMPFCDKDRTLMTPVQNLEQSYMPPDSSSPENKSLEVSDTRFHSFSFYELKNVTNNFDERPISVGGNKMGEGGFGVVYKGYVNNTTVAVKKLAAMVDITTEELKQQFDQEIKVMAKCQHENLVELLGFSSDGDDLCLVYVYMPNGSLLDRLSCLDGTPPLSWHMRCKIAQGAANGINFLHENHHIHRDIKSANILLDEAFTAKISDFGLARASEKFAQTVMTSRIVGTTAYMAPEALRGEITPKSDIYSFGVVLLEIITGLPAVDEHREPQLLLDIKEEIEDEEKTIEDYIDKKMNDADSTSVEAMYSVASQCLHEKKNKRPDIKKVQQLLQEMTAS

IRAK4 [2] = biological target: T1, IRAK4; assay: Reaction Biology NanoBRET target engagement assay in HEK-293 cells, IRAK4; conditions: NanoBRET IRAK4 IC50, HEK-293 cells
FLT3 D835H = biological target: T2, FLT3 D835H (Homo sapiens, UniProt P36888, D835H); assay: DiscoverX KINOMEscan competition binding, FLT3 D835H
T2 construct: purchased DiscoverX (KINOMEscan)
T2 sequence (P36888 27-993 D835H): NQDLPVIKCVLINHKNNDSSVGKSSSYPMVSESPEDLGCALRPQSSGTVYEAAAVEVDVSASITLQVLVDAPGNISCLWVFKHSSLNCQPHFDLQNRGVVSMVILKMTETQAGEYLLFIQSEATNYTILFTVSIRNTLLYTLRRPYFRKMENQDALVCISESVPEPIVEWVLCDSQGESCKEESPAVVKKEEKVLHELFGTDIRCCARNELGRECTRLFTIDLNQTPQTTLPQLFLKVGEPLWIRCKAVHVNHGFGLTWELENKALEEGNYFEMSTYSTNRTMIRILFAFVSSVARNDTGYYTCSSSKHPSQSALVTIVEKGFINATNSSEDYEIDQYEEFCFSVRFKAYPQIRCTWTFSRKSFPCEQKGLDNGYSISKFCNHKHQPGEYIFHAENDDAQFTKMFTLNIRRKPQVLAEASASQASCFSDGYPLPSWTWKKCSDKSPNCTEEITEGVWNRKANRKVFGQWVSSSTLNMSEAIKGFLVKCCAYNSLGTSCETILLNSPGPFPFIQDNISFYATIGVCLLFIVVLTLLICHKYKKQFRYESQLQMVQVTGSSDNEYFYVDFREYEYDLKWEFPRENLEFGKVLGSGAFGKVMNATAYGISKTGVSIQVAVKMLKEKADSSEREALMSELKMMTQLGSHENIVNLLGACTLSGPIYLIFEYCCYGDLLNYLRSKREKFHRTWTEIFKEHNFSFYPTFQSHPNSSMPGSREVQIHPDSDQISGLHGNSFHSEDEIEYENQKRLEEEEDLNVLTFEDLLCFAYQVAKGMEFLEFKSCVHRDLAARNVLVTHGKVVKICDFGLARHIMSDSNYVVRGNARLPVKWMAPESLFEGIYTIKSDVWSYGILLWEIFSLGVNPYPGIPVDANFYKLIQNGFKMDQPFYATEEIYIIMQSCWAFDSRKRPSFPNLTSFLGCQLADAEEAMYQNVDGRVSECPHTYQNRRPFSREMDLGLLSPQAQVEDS

FLT3 D835Y = biological target: T3, FLT3 D835Y (Homo sapiens, UniProt P36888, D835Y); assay: DiscoverX KINOMEscan competition binding, FLT3 D835Y
T3 construct: purchased DiscoverX (KINOMEscan)
T3 sequence (P36888 27-993 D835Y): T2 sequence (P36888 27-993 D835H) with H809Y

Row | Structure (SMILES) | IC50 (IRAK4 [1]) [nM] | IC50 (IRAK4 [2]) [nM] | Kd (FLT3 D835H) [nM] | Kd (FLT3 D835Y) [nM]
1 | F[C@H]1CCNC[C@@H]1Nc1cncc(-c2cnc3cc(OC4CC4)ccn23)n1 [Compound 12, 6-(7-cyclopropoxyimidazo[1,2-a]pyridin-3-yl)-N-((3S,4S)-4-fluoropiperidin-3-yl)pyrazin-2-amine] | 2 | 1 | 1.1 | 1.1
2 | COc1cc2ncc(-c3ccnc(N[C@H]4CNC[C@@H]4F)n3)n2nc1C1CC1 [Compound 49, 4-(6-cyclopropyl-7-methoxyimidazo[1,2-b]pyridazin-3-yl)-N-((3S,4S)-4-fluoropyrrolidin-3-yl)pyrimidin-2-amine] | 1 | – | 0.46 | 0.41
3 | COc1cc2ncc(-c3ccnc(N[C@@H]4CCCNC4)n3)n2nc1C1CC1 [Compound 50, (R)-4-(6-cyclopropyl-7-methoxyimidazo[1,2-b]pyridazin-3-yl)-N-(piperidin-3-yl)pyrimidin-2-amine] | 4 | – | – | –
4 | COc1cc2ncc(-c3ccnc(N[C@H]4CNCC[C@@H]4F)n3)n2nc1C1CC1 [Compound 51, 4-(6-cyclopropyl-7-methoxyimidazo[1,2-b]pyridazin-3-yl)-N-((3S,4S)-4-fluoropiperidin-3-yl)pyrimidin-2-amine] | 0.6 | 1 | 0.47 | 0.35

Now from value to compound:

Row | IC50 (IRAK4 [1]) [nM] | IC50 (IRAK4 [2]) [nM] | Kd (FLT3 D835H) [nM] | Kd (FLT3 D835Y) [nM] | Structure (SMILES)
5 | 0.7 | < 0.5 | 1.1 | 0.69 | CC(O)(c1cn2c(-c3ccnc(N[C@H]4CNCC[C@@H]4F)n3)cnc2cn1)C(F)(F)F (single isomer, unassigned) [Compound 72]
6 | 1 | 9 | 0.87 | 0.6 | COc1cc2ncc(-c3cncc(N[C@H]4CNC[C@@H]4F)n3)n2nc1C1CC1 [Compound 22, 6-(6-cyclopropyl-7-methoxyimidazo[1,2-b]pyridazin-3-yl)-N-((3S,4S)-4-fluoropyrrolidin-3-yl)pyrazin-2-amine]
7 | 0.7 | 1 | 0.33 | 0.74 | COc1cc2ncc(-c3cncc(N[C@H]4CNCC[C@@H]4F)n3)n2nc1C1CC1 [Compound 24, 6-(6-cyclopropyl-7-methoxyimidazo[1,2-b]pyridazin-3-yl)-N-((3S,4S)-4-fluoropiperidin-3-yl)pyrazin-2-amine]
8 | < 0.5 | < 0.5 | 0.28 | 0.15 | COc1cc2ncc(-c3ccnc(N[C@@H]4CCCNC4)n3)n2cc1C(C)(C)O [Compound 44, (R)-2-(7-methoxy-3-(2-(piperidin-3-ylamino)pyrimidin-4-yl)imidazo[1,2-a]pyridin-6-yl)propan-2-ol]
